Measurements taken from ChEMBL document CHEMBL5038666, “Discovery of DNA-Targeting HDAC Inhibitors with Potent Antitumor Efficacy In Vivo That Trigger Antitumor Immunity” (J Med Chem, 2022).
pIC50: −log10 of the molar value. Values belong to the compound of their own block, whether it stands above or below them. Activity calls are given as the source filed them. No cut-off for these calls is given here.

Key:
B16-F10 [1] = assay: Antitumor activity against mouse B16-F10 cells implanted in C57BL/6J mouse assessed as reduction on tumor volume at 60 mg/kg, IG administered for 12 days; type: functional, organism-based; details: time 12.0 day
B16-F10 [2] = assay: Antitumor immunity against mouse B16-F10 cells implanted in C57BL/6J mouse assessed as increase in proportion of dendritic cells by flow cytometry analysis; type: functional, cell-based
B16-F10 [3] = assay: Antitumor immunity against mouse B16-F10 cells implanted in C57BL/6J mouse assessed as fold reduction in M2 macrophages in tumor microenvironment by flow cytometry analysis relative to control; type: functional
B16-F10 [4] = assay: Antitumor immunity against mouse B16-F10 cells implanted in C57BL/6J mouse assessed as fold reduction in macrophages in tumor microenvironment by flow cytometry analysis relative to control; type: functional
[5] = Toxicity in C57BL/6J mouse implanted with mouse B16-F10 cells assessed as glomerular structure damage in kidney at 60 mg/kg, IG administered for 12 days H and E staining based histopathological analysis; type: organism-based; details: in vivo, po, 288 h, time 12 day
B16-F10 [6] = assay: Antitumor immunity against mouse B16-F10 cells implanted in C57BL/6J mouse assessed as fold increase in CD107a expression by flow cytometry analysis relative to control; type: functional
B16-F10 [7] = assay: Antitumor immunity against mouse B16-F10 cells implanted in C57BL/6J mouse assessed as fold increase in IFN-gamma secretion by flow cytometry analysis relative to control; type: functional
B16-F10 [8] = assay: cells; type: functional, cell-based; details: Mus musculus, B16-F10, 48 h
Description: Antiproliferative activity against mouse B16-F10 cells assessed as inhibition of cell growth measured after 48 hrs by MTT assay

B16-F10 [9] = assay: Antitumor immunity against mouse B16-F10 cells implanted in C57BL/6J mouse assessed as fold increase of CD3+ T cells in spleen by flow cytometry analysis relative to control; type: functional
B16-F10 [10] = assay: Antitumor activity against mouse B16-F10 cells xenografted in C57BL/6J mouse assessed as reduction in tumor heterogeneity at 60 mg/kg, IG administered for 12 days by H and E staining based histopathological analysis; type: functional, organism-based; details: time 12.0 day
B16-F10 [11] = assay: Antitumor immunity against mouse B16-F10 cells implanted in C57BL/6J mouse assessed as fold increase of CD4+ T cells in spleen by flow cytometry analysis relative to control; type: functional
B16-F10 [12] = assay: Antitumor immunity against mouse B16-F10 cells implanted in C57BL/6J mouse assessed as fold increase in ICOS expression by flow cytometry analysis relative to control; type: functional
K562 = assay: cells; type: functional, cell-based; details: Homo sapiens, K562, 48 h
Description: Antiproliferative activity against human K562 cells assessed as inhibition of cell growth measured after 48 hrs by MTT assay

HEL = assay: Antitumor activity against HEL cells xenografted in mouse assessed as inhibition of tumor growth at 90 mg/kg, ip administered for 20 days; type: functional, organism-based; details: Homo sapiens, time 20.0 day
[13] = Toxicity in mouse xenografted with HEL cells assessed as effect on body weight at 90 mg/kg, ip administered for 20 days; type: organism-based; details: in vivo, 480 h, time 20 day
Histone deacetylase = assay: Inhibition of HDAC in human HeLa nuclear extract using fluorogenic substrate incubated for 30 mins by fluorescence based assay; type: cell-based
B16-F10 [14] = assay: Antitumor immunity against mouse B16-F10 cells implanted in C57BL/6J mouse assessed as fold increase of CD8+ T cells in spleen by flow cytometry analysis relative to control; type: functional
B16-F10 [15] = assay: Antitumor immunity against mouse B16-F10 cells implanted in C57BL/6J mouse assessed as fold increase in CD69 expression by flow cytometry analysis relative to control; type: functional
[16] = Toxicity in C57BL/6J mouse implanted with mouse B16-F10 cells assessed as lung damage at 60 mg/kg, IG administered for 12 days H and E staining based histopathological analysis; type: organism-based; details: in vivo, po, 288 h, time 12 day
KG-1 [17] = assay: Potency index, ratio of SAHA IC50 to test compound IC50 for antiproliferative activity against human KG1 cells assessed as inhibition of cell growth measured after 48 hrs by MTT assay; type: functional
KG-1 [18] = assay: Downregulation of SSRP-1 expression in human KG-1 cells assessed as chromatin damage at 0.5 to […] measured after 24 hrs by Western blot analysis; type: functional, cell-based; details: dose 0.5-2.5 µM
KG-1 [19] = assay: Induction of apoptosis in human KG-1 cells assessed as total apoptotic cells at 1 uM measured after 24 hrs by Annexin V-FITC/propidium iodide staining based flow cytometry analysis relative to control; type: functional
KG-1 [20] = assay: Induction of apoptosis in human KG-1 cells measured after 24 hrs by Annexin V-FITC/propidium iodide staining based flow cytometry analysis; type: functional, cell-based; details: dose 0.5-1 µM
[21] = molecular target: T1, Histone deacetylase (Homo sapiens) (UniProt Q13547+O15379+Q9UBN7+Q92769+Q9UQL6+Q8WUI4+Q9BY41+Q96DB2+P56524+Q9UKV0+Q969S8); assay: Inhibition of HDAC in human KG1 cells assessed as increase in acetylation of alpha tubulin measured after 24 hrs by Western blot analysis; type: cell-based; details: KG-1, dose 0.5-2.5 µM
Calf thymus DNA [22] = assay: Binding affinity to calf thymus DNA assessed as change in entropy at 500 microM by isothermal titration calorimetric analysis; type: nucleic-acid assay; details: Bos taurus
KG-1 [23] = assay: Downregulation of SPT16 expression in human KG-1 cells assessed as chromatin damage at 0.5 to […] measured after 24 hrs by Western blot analysis; type: functional, cell-based; details: dose 0.5-2.5 µM
Calf thymus DNA [24] = assay: Binding affinity to calf thymus DNA assessed as increase in absorption at 20 uM by UV-vis absorption spectroscopy; type: nucleic-acid assay; details: Bos taurus
KG-1 [25] = assay: Induction of apoptosis in human KG-1 cells assessed as increase in cleaved active caspase 3 level at 0.5 to […] measured after 24 hrs by Western blot analysis; type: functional, cell-based; details: dose 0.5-2.5 µM
[26] = molecular target: T1, Histone deacetylase (Homo sapiens); assay: Inhibition of HDAC in human KG-1 cells assessed as increase in acetylation of histone H3 measured after 24 hrs by Western blot analysis; type: cell-based; details: dose 0.5-2.5 µM
B16-F10 [27] = assay: Antitumor immunity against mouse B16-F10 cells implanted in C57BL/6J mouse assessed as increase in proportion of T cells in spleen by flow cytometry analysis; type: functional, cell-based

pIC50 (B16-F10 [8]): 5.40
pIC50 (K562): 6.00
IC50 (Histone deacetylase): 7.9 nM
SMILES: O=C(CCCCCCCOc1cccc(-c2nc3ccccc3[nH]2)c1)NO
Activity (B16-F10 [1]): Active
Activity (B16-F10 [2]): inactive
fold change (FC) (B16-F10 [3]): 1.5
fold change (FC) (B16-F10 [4]): 1.7
Activity [5]: Toxic
fold change (FC) (B16-F10 [6]): 1.5
fold change (FC) (B16-F10 [7]): 1.5
fold change (FC) (B16-F10 [9]): 1.6
Activity (B16-F10 [10]): Active
fold change (FC) (B16-F10 [11]): 2
fold change (FC) (B16-F10 [12]): 1.5
Activity (HEL): Active
Activity [13]: Non-Toxic
fold change (FC) (B16-F10 [14]): 1.5
fold change (FC) (B16-F10 [15]): 1.5
Activity [16]: Non-Toxic

pIC50 (B16-F10 [8]): 5.32
Activity [21]: Dose-Dependent Effect
-TdeltaS (Calf thymus DNA [22]): 74 kcal/mol
pIC50 (K562): 6.54
Activity (Calf thymus DNA [24]): Active
IC50 (Histone deacetylase): 13.2 nM
Activity [26]: Dose-Dependent Effect
SMILES: O=C(CCCCCCOc1cccc(-c2nc3ccccc3[nH]2)c1)NO
Activity (B16-F10 [1]): Active
fold change (FC) (KG-1 [17]): 50
fold change (FC) (B16-F10 [4]): 1.7
Activity (KG-1 [18]): Active
Activity [5]: Non-Toxic
Activity (KG-1 [19]): 56.9%
Activity (B16-F10 [10]): Active
Activity (KG-1 [20]): Dose-Dependent Effect
Activity (KG-1 [23]): Active
Activity (HEL): Active
Activity [13]: Non-Toxic
Activity (KG-1 [25]): Active
Activity (B16-F10 [27]): Active
